Data reported in patent US10494380B2, “Nitrogen-containing tricyclic derivatives having HIV replication inhibitory activity” (priority 2015, dated 2019).
Like-named read-outs stand apart in the source and are kept apart here.

Key:
[1] = system: T125A mutant virus (HIV-1 NL-432 recombinant molecular clone, IN gene); test: HIV replication inhibition assay against integrase 124/125 mutant virus (Test Example 2); format: cell-based
Method in brief: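 EC50 is the compound concentration blocking half of virus-induced cell death, measured by MTT (OD 560 nm, 690 nm reference) after 4 days at 37 °C. Integrase 124/125 mutant NL-432 virus from transfected 293T cells (60 pfu) was added to 2.5×10^4 MT-4 cells with compound.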

[2] = molecular target: CYP2C9 (Homo sapiens (Human), UniProt P11712); test: CYP inhibition assay, tolbutamide methyl-hydroxylation (Test Example 4); format: in vitro ADME; settings: pooled human hepatic microsome, 100 μmol/L tolbutamide, 15 minutes, 37° C.
Sequence of CYP2C9 (P11712 whole entry): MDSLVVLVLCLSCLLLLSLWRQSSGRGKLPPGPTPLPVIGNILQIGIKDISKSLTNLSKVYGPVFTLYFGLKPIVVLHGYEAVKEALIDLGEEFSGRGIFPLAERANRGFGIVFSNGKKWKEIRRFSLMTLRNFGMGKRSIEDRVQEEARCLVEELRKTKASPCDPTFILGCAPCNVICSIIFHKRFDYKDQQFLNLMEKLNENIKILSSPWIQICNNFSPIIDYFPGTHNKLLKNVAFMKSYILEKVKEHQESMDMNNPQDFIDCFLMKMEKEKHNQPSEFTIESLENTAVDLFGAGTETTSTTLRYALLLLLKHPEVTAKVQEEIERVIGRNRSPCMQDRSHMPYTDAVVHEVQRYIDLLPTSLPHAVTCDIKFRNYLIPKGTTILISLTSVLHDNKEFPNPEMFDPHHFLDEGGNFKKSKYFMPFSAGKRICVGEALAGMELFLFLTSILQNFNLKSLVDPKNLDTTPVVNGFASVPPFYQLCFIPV
Protocol: Using commercially available pooled human hepatic microsome, and employing, as markers, 7-ethoxyresorufin O-deethylation (CYP1A2), tolbutamide methyl-hydroxylation (CYP2C9), mephenytoin 4′-hydroxylation (CYP2C19), dextromethorphan O-demethylation (CYP2D6), and terfenadine hydroxylation (CYP3A4) as typical substrate metabolism reactions of human main five CYP enzyme forms (CYP1A2, 2C9, 2C19, 2D6, 3A4) an inhibitory degree of each metabolite production amount by a test compound was assessed.
The reaction conditions were as follows: substrate, 0.5 μmol/L ethoxyresorufin (CYP1A2), 100 μmol/L tolbutamide (CYP2C9), 50 μmol/L S-mephenytoin (CYP2C19), 5 μmol/L dextromethorphan (CYP2D6), 1 μmol/L terfenedine (CYP3A4); reaction time, 15 minutes; reaction temperature, 37° C.; enzyme, pooled human hepatic microsome 0.2 mg protein/mL; test drug concentration, 1, 5, 10, 20 μmol/L (four points).
Each five kinds of substrates, human hepatic microsome, and a test drug in 50 mmol/L Hepes buffer as a reaction solution was added to a 96-well plate as the composition ad described above, NADPH, as a coenzyme was added to initiate metabolism reactions as markers and, after the incubation at 37° C. for 15 minutes, a methanol/acetonitrile=1/1 (V/V) solution was added to stop the reaction. After the centrifugation at 3000 rpm for 15 minutes, resorufin (CYP1A2 metabolite) in the supernatant was quantified by a fluorescent multilabel counter and tolbutamide hydroxide (CYP2C9 metabolite), mephenytoin 4′ hydroxide (CYP2C19 metabolite), dextrorphan (CYP2D6 metabolite), and terfenadine alcohol (CYP3A4 metabolite) were quantified by LC/MS/MS.

[3] = molecular target: CYP3A4 (Homo sapiens (Human), UniProt P08684); test: CYP3A4 (MDZ) MBI test (Test Example 6); settings: pooled human liver microsomes, midazolam 1-hydroxylation, preincubation 0 or 30 min
Sequence of CYP3A4 (P08684 whole entry): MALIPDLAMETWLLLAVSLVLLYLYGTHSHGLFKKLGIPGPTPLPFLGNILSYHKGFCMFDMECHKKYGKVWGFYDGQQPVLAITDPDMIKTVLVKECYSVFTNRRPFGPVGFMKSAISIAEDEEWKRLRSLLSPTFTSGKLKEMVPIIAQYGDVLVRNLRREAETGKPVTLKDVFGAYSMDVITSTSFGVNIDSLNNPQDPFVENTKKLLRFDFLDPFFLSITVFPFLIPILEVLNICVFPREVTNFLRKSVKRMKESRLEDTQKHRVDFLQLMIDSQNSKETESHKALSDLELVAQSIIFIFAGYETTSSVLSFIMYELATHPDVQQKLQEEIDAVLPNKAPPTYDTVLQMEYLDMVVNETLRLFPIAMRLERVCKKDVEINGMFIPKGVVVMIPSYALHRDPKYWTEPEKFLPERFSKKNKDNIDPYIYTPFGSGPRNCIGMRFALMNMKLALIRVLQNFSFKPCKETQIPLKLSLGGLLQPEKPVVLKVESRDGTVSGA

[4] = system: sheep red blood cells (RBC); test: Photohemolysis test (Test Example 13); format: cell-based; settings: 0.0008 to 0.1 w/v %, 10 J/cm2 UV-irradiation (290-400 nm)
Source text: Aliquots of sheep red blood cells (RBC) suspension prepared with medium to make a 2.5 v/v % concentration are dispensed into microplates. The compound of the present invention was desolved with a vehicle to make target concentrations and then these solutions were immediately added (in concentrations of 0.0008 to 0.1 w/v %) into the microplates. The mixtures on the microplates were exposed to 10 J/cm2 of UV-irradiation (UV-A and UV-B, 290-400 nm) with a GL20SE lamp (SANKYO DENKI) and a FL20S-BLB lamp (Panasonic). After the UV-irradiation, the mixtures were centrifuged. Aliquots of supernatant were transferred to a microplate. Absorbance of the supernatants was measured at 540 nm and 630 nm for judgement of the potential of phototoxicity. In the study, two endpoints were evaluated in biomembrane impairment (% of photohemolysis index; PI) and hyperoxidation of lipid membrane (methemoglobin formation; met-Hb) with the absorbance at 540 nm and 630 nm, respectively. PI and met-Hb were assessed based on the negative criteria (−), PI<10% and changes in absorbance at 630 nm<0.05, respectively. All else was judged as positive (+).

[5] = system: HIV; format: cell-based; settings: EC50 in the presence of human serum (25%) versus without human serum, MT-4 cells
Method in brief: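 HIV-infected MT-4 cells (3×10^4/well, infected 1 h at 37° C) are grown 4 days with compound that was first mixed 1 h with human serum or with medium only. Potency shift is the EC50 with serum divided by the EC50 without serum.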

[6] = system: HIV (HTLV-IIIB strain); test: HIV replication inhibition assay (Test Example 1; MT-4 cells, MTT); format: cell-based; settings: MT-4 cells, MTT; for EC50: read-out: EC50; for EC90: read-out: EC90
Method in brief: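 MT-4 cells (2.5×10^4/well) were infected with HIV HTLV-IIIB (60 pfu) in the presence of compound and cultured 4 days at 37 °C. Cell viability was read by MTT reduction (OD 560/690 nm). EC50 and EC90 are the concentrations inhibiting virus-induced cytotoxicity by 50% and 90%.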

[7] = Human immunodeficiency virus 1, MT4, read-out: EC50 against T125A mutant virus, T125A mutant virus (HIV-1 NL-432 IN gene), MT-4 cells, MTT
[8] = Human immunodeficiency virus 1, MT4, 96 h, HIV (HTLV-IIIB strain), four days
[9] = T125A mutant virus (HIV-1 NL-432 IN gene), MT-4 cells, MTT, read-out: EC50 against T125A mutant virus
[10] = HIV (HTLV-IIIB strain), four days

Compound | EC50 [1, 7] [nM] | IC50 [2] [nM] | CYP3A4 (MDZ) MBI, shifted IC [3] | Photohemolysis test, potential of phototoxicity (PI and met-Hb) [4] | Potency shift value [5] | EC50 [6, 8] [nM] | EC90 [6, 8] [nM] | EC50 [1, 9] [nM] | EC50 [6, 10] [nM] | EC90 [6, 10] [nM] | EC50 ([6]; Human immunodeficiency virus 1, MT4, 96 h, HIV HTLV-IIIB strain, cultured four days) [nM]
Cc1ccc(N2CCn3c(C)cc4c(-c5ccc(Cl)cc5)c([C@H](OC(C)(C)C)C(=O)O)c(C)c2c43)nn1 [Compound I-262] | 5 | > 20000 | (−) (When a shifted IC was 1.0 or less, this was defined as negative) | (−) (negative criteria (−), PI<10% and changes in absorbance at 630 nm<0.05, respectively) | 13 | 3.2 | 5.1 | – | – | – | –
Cc1c([C@H](OC(C)(C)C)C(=O)O)c(-c2ccc(Cl)cc2)c2cc(C)n3c2c1N(c1ncc(F)cn1)CC3 [Compound I-122] | 5.1 | > 20000 | (−) (When a shifted IC was 1.0 or less, this was defined as negative) | (−) (negative criteria (−), PI<10% and changes in absorbance at 630 nm<0.05, respectively) | 23 | 1.3 | 2.9 | – | – | – | –
Cc1c([C@H](OC(C)(C)C)C(=O)O)c(-c2ccc(Cl)cc2)c2cc(C)n3c2c1N(S(C)(=O)=O)[C@@H](CC(F)F)C3 [Compound I-041] | 13 | > 20000 | (−) (When a shifted IC was 1.0 or less, this was defined as negative) | (−) (negative criteria (−), PI<10% and changes in absorbance at 630 nm<0.05, respectively) | 4.1 | 1.5 | 2.3 | – | – | – | –
Cc1ccc(-c2c([C@H](OC(C)(C)C)C(=O)O)c(C)c3c4c2cc(C)n4CCN3c2ncc(O[C@H]3CCN(C)C3)cn2)cc1 [Compound I-270] | 13 | > 20000 | (−) (When a shifted IC was 1.0 or less, this was defined as negative) | (−) (negative criteria (−), PI<10% and changes in absorbance at 630 nm<0.05, respectively) | 3.8 | 4.5 | 7.5 | – | – | – | –
Cc1ccc(-c2c([C@H](OC(C)(C)C)C(=O)O)c(C)c3c4c2cc(C)n4CCN3c2ncc(CN3CCCCC3)cn2)cc1 [Compound I-308] | – | > 20000 | (−) (When a shifted IC was 1.0 or less, this was defined as negative) | (−) (negative criteria (−), PI<10% and changes in absorbance at 630 nm<0.05, respectively) | 11 | – | – | 4.3 | 1.6 | 4.8 | –
Cc1ccc(-c2c([C@H](OC(C)(C)C)C(=O)O)c(C)c3c4c2cc(C)n4CCN3c2ccc(N3CCCC3=O)nn2)cc1 [Compound I-303] | – | > 20000 | (−) (When a shifted IC was 1.0 or less, this was defined as negative) | (−) (negative criteria (−), PI<10% and changes in absorbance at 630 nm<0.05, respectively) | 15 | – | – | 4.3 | 1.5 | 4 | –
COCC[C@H]1Cn2c(C)cc3c(-c4ccc(Cl)cc4)c([C@H](OC(C)(C)C)C(=O)O)c(C)c(c32)N1S(C)(=O)=O [Compound I-043] | – | > 20000 | (−) (When a shifted IC was 1.0 or less, this was defined as negative) | (−) (negative criteria (−), PI<10% and changes in absorbance at 630 nm<0.05, respectively) | 3.2 | – | – | 11 | 1.4 | 2.3 | –
Cc1ccc(-c2c([C@H](OC(C)(C)C)C(=O)O)c(C)c3c4c2cc(C)n4CCN3c2nc3c(s2)CCN(C)C3)cc1 [Compound I-292] | 6.3 | > 20000 | (−) (When a shifted IC was 1.0 or less, this was defined as negative) | (−) (negative criteria (−), PI<10% and changes in absorbance at 630 nm<0.05, respectively) | 4.5 | 2.5 | 5.1 | – | – | – | –
Cc1ccc(-c2c([C@H](OC(C)(C)C)C(=O)O)c(C)c3c4c2cc(C)n4CCN3c2ncc(CN(C)C)cn2)cc1 [Compound I-304] | – | > 20000 | (−) (When a shifted IC was 1.0 or less, this was defined as negative) | (−) (negative criteria (−), PI<10% and changes in absorbance at 630 nm<0.05, respectively) | 6.8 | – | – | 7.2 | 4.1 | – | –
Cc1ccc(-c2c([C@H](OC(C)(C)C)C(=O)O)c(C)c3c4c2cc(C)n4CCN3c2ncc(OCCCN(C)C)cn2)cc1 [Compound I-267] | 26 | > 20000 | (−) (When a shifted IC was 1.0 or less, this was defined as negative) | (−) (negative criteria (−), PI<10% and changes in absorbance at 630 nm<0.05, respectively) | 4 | 11 | 18 | – | – | – | –
Cc1ccc(-c2c([C@H](OC(C)(C)C)C(=O)O)c(C)c3c4c2cc(C)n4C(C)CN3CCN(C)C)cc1 (single isomer, unassigned) [Compound I-164] | 42 | > 20000 | (−) (When a shifted IC was 1.0 or less, this was defined as negative) | (−) (negative criteria (−), PI<10% and changes in absorbance at 630 nm<0.05, respectively) | 2.6 | – | 20 | – | – | – | 11
